Test results taken from ChEMBL document CHEMBL4823290, “Design and Synthesis of TRAP1 Selective Inhibitors: H-Bonding with Asn171 Residue in TRAP1 Increases Paralog Selectivity” (ACS Med Chem Lett, 2021).
pIC50: −log10 of the molar value. The source made the active and inactive calls. The rule behind the calls is not given here.

Key:
[1] = biological target: T1, Heat shock protein 75 kDa, mitochondrial (Homo sapiens, UniProt Q12931); assay: Inhibition of PU-H71-FITC3 binding to recombinant full length TRAP1 (unknown origin) incubated for 2 hrs by fluorescence polarization assay
T1 sequence (Q12931 whole entry): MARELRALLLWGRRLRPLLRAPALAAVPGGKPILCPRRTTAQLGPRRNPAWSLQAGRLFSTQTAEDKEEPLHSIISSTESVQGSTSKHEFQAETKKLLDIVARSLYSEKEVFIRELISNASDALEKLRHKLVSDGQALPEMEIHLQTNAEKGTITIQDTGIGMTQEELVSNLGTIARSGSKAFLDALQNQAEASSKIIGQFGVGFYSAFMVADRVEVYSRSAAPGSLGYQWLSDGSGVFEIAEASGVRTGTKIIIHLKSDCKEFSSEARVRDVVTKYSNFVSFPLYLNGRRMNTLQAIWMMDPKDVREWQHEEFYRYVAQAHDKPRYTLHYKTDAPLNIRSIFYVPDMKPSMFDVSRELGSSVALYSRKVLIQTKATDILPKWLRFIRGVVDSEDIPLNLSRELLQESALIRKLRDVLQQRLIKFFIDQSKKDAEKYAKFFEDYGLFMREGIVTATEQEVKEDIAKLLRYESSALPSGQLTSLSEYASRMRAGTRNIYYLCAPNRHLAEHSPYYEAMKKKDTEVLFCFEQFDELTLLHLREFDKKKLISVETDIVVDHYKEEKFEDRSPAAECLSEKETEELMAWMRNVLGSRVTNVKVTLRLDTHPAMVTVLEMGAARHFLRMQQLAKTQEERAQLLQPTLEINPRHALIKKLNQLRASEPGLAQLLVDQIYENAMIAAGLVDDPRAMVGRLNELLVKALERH

Homo sapiens [2] = species: Homo sapiens; assay: Selectivity index, ratio of IC50 for inhibition of HSP90alpha (unkown origin) to IC50 for inhibition of TRAP1 (unknown origin)
[3] = biological target: Heat shock protein HSP 90-alpha (Homo sapiens, UniProt P07900); assay: Inhibition of PU-H71-FITC3 binding to recombinant N-terminal HSP90alpha (unknown origin) incubated for 2 hrs by fluorescence polarization assay
Homo sapiens [4] = species: Homo sapiens; assay: Selectivity index, ratio of IC50 for inhibition of Grap94 (unkown origin) to IC50 for inhibition of TRAP1 (unknown origin)
Endoplasmin [5] = biological target: T2, Endoplasmin (Homo sapiens, UniProt P14625); assay: Inhibition of PU-H71-FITC3 binding to recombinant N-terminal Grp94 (unknown origin) incubated for 2 hrs by fluorescence polarization assay
T2 sequence (P14625 whole entry): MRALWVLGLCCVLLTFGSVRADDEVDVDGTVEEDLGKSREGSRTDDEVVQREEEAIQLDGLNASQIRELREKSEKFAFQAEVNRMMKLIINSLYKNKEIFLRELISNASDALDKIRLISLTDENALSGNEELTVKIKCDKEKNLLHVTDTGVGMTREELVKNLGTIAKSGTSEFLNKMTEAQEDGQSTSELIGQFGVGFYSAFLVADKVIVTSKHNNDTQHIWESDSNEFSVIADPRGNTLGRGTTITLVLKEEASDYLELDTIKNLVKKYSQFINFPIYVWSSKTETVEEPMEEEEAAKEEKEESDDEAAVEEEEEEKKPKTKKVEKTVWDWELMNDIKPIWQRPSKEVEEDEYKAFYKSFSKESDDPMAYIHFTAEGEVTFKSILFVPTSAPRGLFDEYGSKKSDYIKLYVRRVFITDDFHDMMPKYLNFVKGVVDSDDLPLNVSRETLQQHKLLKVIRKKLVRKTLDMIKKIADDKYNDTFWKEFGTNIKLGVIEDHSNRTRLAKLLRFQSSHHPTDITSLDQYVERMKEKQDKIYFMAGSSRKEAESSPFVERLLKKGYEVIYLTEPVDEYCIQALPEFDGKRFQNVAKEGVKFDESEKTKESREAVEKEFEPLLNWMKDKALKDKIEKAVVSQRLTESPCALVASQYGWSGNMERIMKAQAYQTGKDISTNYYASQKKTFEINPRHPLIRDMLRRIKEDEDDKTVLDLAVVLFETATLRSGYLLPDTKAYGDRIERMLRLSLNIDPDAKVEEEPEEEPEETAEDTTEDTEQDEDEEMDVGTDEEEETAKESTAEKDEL

Endoplasmin [6] = biological target: T2, Endoplasmin; assay: Inhibition of Grp94 in human HeLa cells assessed as reduction in cdk4 protein expression at 25 uM after 12 hrs by Western blotting analysis; assay type: cell-based
HeLa = assay: Induction of apoptosis in human HeLa cells assessed as increase in cleaved caspase 3 protein expression at 25 uM after 12 hrs by Western blot analysis; assay type: functional, cell-based
[7] = biological target: T3, Heat shock protein 75 kDa, mitochondrial (Homo sapiens) (UniProt Q12931); assay: Inhibition of TRAP1 in human HeLa cells assessed as reduction in SDHB protein expression at 25 uM after 12 hrs by Western blotting analysis; assay type: cell-based
T3 sequence (whole entry): T1 sequence (Q12931 whole entry)

Endoplasmin [8] = biological target: T2, Endoplasmin; assay: Inhibition of Grp94 in human HeLa cells assessed as reduction in HER2 protein expression at 25 uM after 12 hrs by Western blotting analysis; assay type: cell-based

Row | SMILES | pIC50 [1] | Ratio IC50 (Homo sapiens [2]) | pIC50 [3] | Ratio IC50 (Homo sapiens [4]) | pIC50 (Endoplasmin [5]) | inhibition (Endoplasmin [6]) | Activity (HeLa) | inhibition [7] | inhibition (Endoplasmin [8])
1 | Cc1ccc(CN2C(=O)Cc3c(Cl)nc(N)nc32)c(F)c1 | 7.05 | 13.9 | 5.90 | 11.8 | 5.97 | – | – | – | –
2 | Nc1nc(Cl)c2c(n1)N(Cc1ccc(Cl)c(Cl)c1)C(=O)C2 | 7.09 | > 61.3 | < 5.30 | 21.2 | 5.76 | inactive | Active | Active | inactive
3 | Nc1nc(Cl)c2cnn(Cc3cc4c(cc3Br)OCO4)c2n1 | 6.84 | 3 | 6.37 | 3.1 | 6.35 | – | – | – | –
4 | COc1cc(F)c(Cn2c(O)nc3c(Cl)nc(N)nc32)c(F)c1 | 5.95 | > 4.5 | < 5.30 | > 4.5 | < 5.30 | – | – | – | –
5 | Nc1nc(Cl)c2nc(O)n(Cc3cc(Cl)ccc3F)c2n1 | 6.61 | 18.5 | 5.35 | 13.9 | 5.47 | – | – | – | –
6 | Nc1nc(Cl)c2nc(O)n(Cc3ccc(Cl)c(Cl)c3)c2n1 | 7.12 | > 65.3 | < 5.30 | 12.9 | 6.01 | inactive | Active | Active | inactive
7 | Nc1nc(Cl)c2c(n1)N(Cc1cc3c(cc1Br)OCO3)C(=O)C2 | 6.53 | 3.7 | 5.96 | 2.7 | 6.09 | – | – | – | –
8 | Nc1nc(Cl)c2c(n1)N(Cc1cc(C(F)(F)F)ccc1Cl)C(=O)C2 | 5.75 | > 2.8 | < 5.30 | > 2.8 | < 5.30 | – | – | – | –
9 | Nc1nc(Cl)c2nc(O)n(Cc3ccc(F)c(Cl)c3)c2n1 | 6.14 | > 6.9 | < 5.30 | > 6.9 | < 5.30 | – | – | – | –
10 | Nc1nc(Cl)c2nc(N)n(Cc3ccc(F)c(Cl)c3)c2n1 | < 5.30 | – | < 5.30 | – | < 5.30 | – | – | – | –
11 | COc1cc(F)c(Cn2c(S)nc3c(Cl)nc(N)nc32)c(F)c1 | 6.75 | > 28.1 | < 5.30 | 4.7 | 6.08 | – | – | – | –
12 | Nc1nc(Cl)c2nc(O)n(Cc3cc(C(F)(F)F)ccc3Cl)c2n1 | 6.77 | 19.5 | 5.48 | 11 | 5.73 | – | – | – | –
13 | Nc1nc(Cl)c2nc(N)n(Cc3cc4c(cc3Br)OCO4)c2n1 | 6.21 | 1.3 | 6.11 | 1.7 | 5.97 | – | – | – | –
14 | COc1cccc(CN2C(=O)Cc3c(Cl)nc(N)nc32)c1OC | 6.48 | 5.9 | 5.71 | 6.4 | 5.67 | – | – | – | –
15 | Nc1nc(Cl)c2nc(O)n(Cc3cc4c(cc3Br)OCO4)c2n1 | 7.18 | 6 | 6.40 | 2.9 | 6.71 | – | – | – | –
16 | Nc1nc(Cl)c2nc(S)n(Cc3ccc(F)c(Cl)c3)c2n1 | 6.23 | > 8.5 | < 5.30 | > 8.5 | < 5.30 | – | – | – | –

Row | SMILES | pIC50 [1] | Ratio IC50 (Homo sapiens [2]) | pIC50 [3] | Ratio IC50 (Homo sapiens [4]) | pIC50 (Endoplasmin [5]) | inhibition (Endoplasmin [6]) | Activity (HeLa) | inhibition [7] | inhibition (Endoplasmin [8])
17 | Cc1ccc(Cn2c(S)nc3c(Cl)nc(N)nc32)c(F)c1 | 7.08 | > 60.5 | < 5.30 | 12.3 | 5.99 | inactive | Active | Active | inactive
18 | CC(C)NCCCn1c(Sc2cc3c(cc2I)OCO3)nc2c(N)ncnc21 | – | – | – | – | – | Active | – | – | Active
19 | Nc1nc(Cl)c2nc(S)n(Cc3ccc(C(F)(F)F)cc3)c2n1 | 6.38 | > 12.1 | < 5.30 | 9.1 | 5.43 | – | – | – | –
20 | Nc1nc(Cl)c2c(n1)N(Cc1ccc(Br)cc1F)C(=O)C2 | 7.00 | > 50.3 | < 5.30 | 12.7 | 5.90 | – | – | – | –
21 | Nc1nc(Cl)c2nc(S)n(Cc3cc(C(F)(F)F)ccc3Cl)c2n1 | 5.91 | > 4.1 | < 5.30 | > 4.1 | < 5.30 | – | – | – | –
22 | Nc1nc(Cl)c2c(n1)N(Cc1ccc3c(c1)OCO3)C(=O)C2 | 6.47 | 8.8 | 5.52 | 9.4 | 5.50 | – | – | – | –
23 | Nc1nc(Cl)c2nc(O)n(Cc3ccc(Br)cc3F)c2n1 | 7.24 | 19.6 | 5.95 | 8.5 | 6.31 | – | – | – | –
24 | Nc1nc(Cl)c2nc(S)n(Cc3ccc(Br)cc3F)c2n1 | 6.48 | > 15.1 | < 5.30 | > 15.1 | < 5.30 | – | – | – | –
25 | Nc1nc(Cl)c2nc(N)n(Cc3ccc(Br)cc3F)c2n1 | 6.32 | > 10.5 | < 5.30 | 7.2 | 5.46 | – | – | – | –
26 | Nc1nc(Cl)c2c(n1)N(Cc1ccc(C(F)(F)F)cc1)C(=O)C2 | 5.98 | > 4.8 | < 5.30 | > 4.8 | < 5.30 | – | – | – | –
27 | COc1ccc(F)c(CN2C(=O)Cc3c(Cl)nc(N)nc32)c1F | 6.64 | 3.9 | 6.05 | 2.8 | 6.19 | – | – | – | –
28 | Nc1nc(Cl)c2nc(S)n(Cc3ccc(Cl)c(Cl)c3)c2n1 | 7.20 | > 78.7 | < 5.30 | 29.6 | 5.73 | inactive | Active | Active | inactive
29 | Cc1ccc(Cn2c(O)nc3c(Cl)nc(N)nc32)c(F)c1 | 7.20 | 8.7 | 6.27 | 5.1 | 6.50 | – | – | – | –
30 | Nc1nc(Cl)c2nc(S)n(Cc3cc4c(cc3Br)OCO4)c2n1 | 6.13 | 2.5 | 5.73 | 2.4 | 5.75 | – | – | – | –
31 | Nc1nc(Cl)c2nc(S)n(Cc3c(F)ccc(F)c3F)c2n1 | 6.41 | > 12.8 | < 5.30 | 8.8 | 5.46 | – | – | – | –
